Literature values, collected in US11702444B2, “Method for preparing natural bioactive peptide Tubulysin U” (Shenzhen Institute of Geriatrics, priority 2020, dated 2023).

Columns and labels:
[1] = test system: 1A9 ovarian cancer cells; conditions: antiproliferative activity in vitro
[2] = test system: MCF-7 breast cancer cells; conditions: antiproliferative activity in vitro

## CC[C@H](C)[C@H](NC(=O)[C@H]1CCCCN1C)C(=O)N[C@H](C[C@@H](OC(C)=O)c1nc(C(=O)N[C@@H](Cc2ccccc2)C[C@H](C)C(=O)O)cs1)C(C)C [Tubulysin U]
[1]
  IC50: 0.65 nM
[2]
  IC50: 0.4 nM
